From patent publication US6339096B1, “Urethanes derived from azacycloalkanes, the thio and dithio analogues thereof and their use as cholesterol biosynthesis inhibitors” (Boehringer Ingelheim Pharma KG, priority 1998, dated 2002) come the findings set out here.

In series [1] the target is T1, 2,3-epoxysqualene-lanosterol-cyclase (Rattus norvegicus, UniProt P48450).
T1 construct: The quantity of 2,3-epoxysqualene formed therefore serves as a direct measurement of the potency on the animal as a whole; from tissue; host or cells: living rat; 2,3-epoxysqualene measured in the liver
T1 sequence (P48450 1-733): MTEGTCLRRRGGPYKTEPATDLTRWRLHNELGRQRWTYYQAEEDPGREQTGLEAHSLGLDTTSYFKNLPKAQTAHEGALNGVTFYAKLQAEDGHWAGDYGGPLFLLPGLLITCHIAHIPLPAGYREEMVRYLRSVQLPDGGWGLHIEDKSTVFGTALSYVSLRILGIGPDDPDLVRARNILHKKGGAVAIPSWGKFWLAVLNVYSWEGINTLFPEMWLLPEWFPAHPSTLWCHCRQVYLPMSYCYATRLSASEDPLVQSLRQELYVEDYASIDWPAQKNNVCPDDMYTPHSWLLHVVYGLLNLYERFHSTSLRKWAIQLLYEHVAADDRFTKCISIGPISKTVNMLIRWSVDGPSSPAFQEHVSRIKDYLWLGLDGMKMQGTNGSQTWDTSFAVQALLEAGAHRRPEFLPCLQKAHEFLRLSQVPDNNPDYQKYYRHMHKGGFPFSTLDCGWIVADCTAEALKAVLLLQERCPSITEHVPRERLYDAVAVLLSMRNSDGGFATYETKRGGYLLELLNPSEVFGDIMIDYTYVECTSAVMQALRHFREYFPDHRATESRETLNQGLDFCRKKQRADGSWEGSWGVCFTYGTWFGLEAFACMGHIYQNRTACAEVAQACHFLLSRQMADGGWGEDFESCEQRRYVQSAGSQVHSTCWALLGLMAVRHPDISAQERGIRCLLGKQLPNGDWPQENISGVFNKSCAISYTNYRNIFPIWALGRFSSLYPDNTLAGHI
In words: In-vivo activity in the rat after oral administration: 2,3-epoxysqualene level in the liver. As to the method: II. Measuring the In-vivo Activity in the Rat after Oral Administration
Inhibiting the enzyme 2,3-epoxysqualene-lanosterol-cyclase causes an increase in the 2,3-epoxisqualene levels in the liver and plasma. The quantity of 2,3-epoxysqualene formed therefore serves as a direct measurement of the potency on the animal as a whole. The amounts were determined using the method described in J. Lipid. Res. 38, 564-575, [1997] after t=3 or 8 hours after administration of the substance in concentrations of c=0.01, 0.03, 0.1, 0.3 and 1.0 mg/kg. Table 3 which follows gives the results obtained for the abovementioned substances A, B, C, D, E, G, H, I and K by way of example.
In the control animals there were no measurable 2,3-epoxisqualene levels under these conditions.

The subject of series [2] is ^14C-acetate incorporation into the steroids which can be precipitated with digitonin. In words: Inhibition of 14C-acetate incorporation into the steroids which can be precipitated with digitonin. The format is cell-based. As to the method:
I. Measuring the Inhibition of ^14C-acetate Incorporation into the Steroids which can be Precipitated with Digitonin
The inhibitory effect was investigated using the method described in J. Lipid. Res. 37, 148-157 [1996] at test concentrations of 10^−8 and 10^−9 mol/l.
The IC50 values of compounds H, I, K and M were determined.

For series [3], the system named is normolipaemic golden hamster. In words: Lipid reduction in the normolipaemic golden hamster. The series is classed as in vivo. The conditions noted are these: dose 54.2 mg/kg/day, compared with control group. As to the method: III. Lipid Reduction in the Normolipaemic Golden Hamster This was determined using the method described in J. Lipid. Res. 38, 564-575, (1997). At the end of the experiment the total cholesterol, β-lipoprotein-cholesterol and HDL-cholesterol were determined and compared with the values of a control group which were fed without any test substance. The lipid-lowering activity of the abovementioned compound H was tested.

pIC50: −log10 of the molar value.

`CN(C)Cc1ccc(SC2CCN(C(=O)Oc3ccccc3)CC2)cc1.Cl` showed a melting point of 161 °C.

Take `Cc1ccc(OC(=O)N2CCC(Cc3ccc(CN(C)C)cc3)CC2)cc1.Cl` [(K), 4-[4-(dimethylaminomethyl)benzyl]-N-(4-methylphenoxy)carbonylpiperidine-hydrochloride]: the “2,3-epoxysqualene concentration in the liver (rat)” value came out at 0.4 µg/g in series [1] (c=0.1 mg/kg, t=3 h); 0.4 µg/g in series [1] (c=0.1 mg/kg, t=8 h); 24.0 µg/g in series [1] (c=1.0 mg/kg, t=3 h); 5.5 µg/g in series [1] (c=1.0 mg/kg, t=8 h). This molecule also showed a pIC50 in series [2] of 8.85. Also, the inhibition at 0.01 µM in series [2] (test concentration 10^−8 mol/l, read-out: percentage by which the compound inhibits the 14C-acetate incorporation) amounted to 82%. The inhibition at 0.001 µM in series [2] (test concentration 10^−9 mol/l, read-out: percentage by which the compound inhibits the 14C-acetate incorporation) was 49%. In series [3], this molecule gave an HDL-cholesterol of 2.3%. Besides, in series [3], the Total cholesterol is on record as −6.8%. The β-Lipoprotein-cholesterol in series [3] is listed as −21.2%.
